Measurements from PubChem BioAssay AID330 (DTP/NCI, 2004).
“And” between values parts separate entries of the source, which are not always exact repeats. Equal values may be shown once. Inconclusive results and toxic doses are left out. Peptide text beside a SMILES is read from it. * marks the point of attachment. Boc = CC(C)(C)OC(=O)*; OtBu = CC(C)(C)O*

Test system: P388 leukemia ip, CD2F1 mice, survival T/C
Experiment: NCI In Vivo Anticancer Drug Screen. Data for tumor model P388 Leukemia (intraperitoneal) in CD2F1 (CDF1) mice
Details: endpoint: median survival time, higher = longer survival
How it was run: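 Mice carrying the transplanted tumor received test compound or vehicle. Survival was recorded in each group, and the value is the treated-group measurement divided by that of the vehicle-treated control group.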

[1] = dose: 30.0 mg/kg/injection, schedule: Q01DX005 (ip), vehicle: Klucel (hydroxypropylcellulose) (HPC)
[2] = dose: 60.0 mg/kg/injection, schedule: Q01DX005 (ip), vehicle: Klucel (hydroxypropylcellulose) (HPC)
[3] = dose: 60.0 mg/kg/injection, schedule: Q01DX005 (ip), vehicle: saline with Tween-80
[4] = dose: 120.0 mg/kg/injection, schedule: Q01DX005 (ip), vehicle: saline with Tween-80
[5] = dose: 240.0 mg/kg/injection, schedule: Q01DX005 (ip), vehicle: saline with Tween-80
[6] = dose: 25.0 mg/kg/injection, schedule: Q01DX009 (ip), vehicle: Klucel (hydroxypropylcellulose) (HPC)
[7] = dose: 50.0 mg/kg/injection, schedule: Q01DX009 (ip), vehicle: Klucel (hydroxypropylcellulose) (HPC)
[8] = dose: 100.0 mg/kg/injection, schedule: Q01DX009 (ip), vehicle: Klucel (hydroxypropylcellulose) (HPC)
[9] = dose: 50.0 mg/kg/injection, schedule: Q01DX005 (ip), vehicle: saline with Tween-80
[10] = dose: 100.0 mg/kg/injection, schedule: Q01DX005 (ip), vehicle: saline with Tween-80
[11] = dose: 200.0 mg/kg/injection, schedule: Q01DX005 (ip), vehicle: saline with Tween-80
[12] = dose: 200.0 mg/kg/injection, schedule: Q01DX009 (ip), vehicle: Klucel (hydroxypropylcellulose) (HPC)
[13] = dose: 25.0 mg/kg/injection, schedule: Q01DX005 (ip), vehicle: water
[14] = dose: 50.0 mg/kg/injection, schedule: Q01DX005 (ip), vehicle: water
[15] = dose: 100.0 mg/kg/injection, schedule: Q01DX005 (ip), vehicle: water
[16] = dose: 50.0 mg/kg/injection, schedule: Q01DX009 (ip), vehicle: saline with Tween-80
[17] = dose: 100.0 mg/kg/injection, schedule: Q01DX009 (ip), vehicle: saline with Tween-80
[18] = dose: 200.0 mg/kg/injection, schedule: Q01DX009 (ip), vehicle: saline with Tween-80
[19] = dose: 50.0 mg/kg/injection, schedule: Q01DX005 (ip), vehicle: Klucel (hydroxypropylcellulose) (HPC)
[20] = dose: 100.0 mg/kg/injection, schedule: Q01DX005 (ip), vehicle: Klucel (hydroxypropylcellulose) (HPC)
[21] = dose: 400.0 mg/kg/injection, schedule: Q01DX009 (ip), vehicle: saline with Tween-80

SMILES: CC(C)c1cc(C(=O)O)c(O)c(C(C)C)c1.CC(C)c1cc(C(=O)O)c(O)c(C(C)C)c1.[Mn]
- T/C (dose: 15.0 mg/kg/injection, schedule: Q01DX005 (ip), vehicle: Klucel (hydroxypropylcellulose) (HPC)): 104 % of control and 106 % of control
- T/C (dose: 15.0 mg/kg/injection, schedule: Q01DX005 (ip), vehicle: other): 101 % of control
- T/C [1]: 110 % of control and 114 % of control
- T/C (dose: 30.0 mg/kg/injection, schedule: Q01DX005 (ip), vehicle: other): 105 % of control and 109 % of control
- T/C [2]: 116 % of control and 117 % of control and 120 % of control
- T/C (dose: 60.0 mg/kg/injection, schedule: Q01DX005 (ip), vehicle: other): 114 % of control and 95 % of control
- T/C (dose: 120.0 mg/kg/injection, schedule: Q01DX005 (ip), vehicle: Klucel (hydroxypropylcellulose) (HPC)): 112 % of control and 116 % of control
- T/C (dose: 120.0 mg/kg/injection, schedule: Q01DX005 (ip), vehicle: other): 114 % of control and 87 % of control
- T/C (dose: 240.0 mg/kg/injection, schedule: Q01DX005 (ip), vehicle: other): 100 % of control

SMILES: COc1ccc2c(O)c3[n+](cc2c1OC)CCc1cc2c(cc1-3)OCO2
- T/C [3]: 99 % of control
- T/C [4]: 104 % of control
- T/C [5]: 101 % of control

SMILES: CCOC(=O)N1C(=O)C2C3C=CC(C2C1=O)C1C2C(=O)N(C(=O)OCC)C(=O)C2C31 (stereo unspecified)
- T/C [6]: 116 % of control and 124 % of control
- T/C [7]: 121 % of control
- T/C [8]: 152 % of control

SMILES: COc1ccc2cc(Cl)c3ccccc3c2c1
- T/C [9]: 87 % of control
- T/C [10]: 90 % of control
- T/C [11]: 86 % of control

SMILES: CCOC(=O)c1nc(C)[nH]c1C
- T/C [7]: 100 % of control
- T/C [8]: 95 % of control
- T/C [12]: 100 % of control

SMILES: CN(C)c1ccc(/C=N/O)cc1
- T/C (dose: 12.5 mg/kg/injection, schedule: Q01DX009 (ip), vehicle: Klucel (hydroxypropylcellulose) (HPC)): 86 % of control
- T/C [6]: 101 % of control and 103 % of control and 110 % of control
- T/C [7]: 103 % of control and 113 % of control
- T/C [8]: 104 % of control and 113 % of control
- T/C [12]: 96 % of control

SMILES: COC(=O)C(CO)NC(=O)OCc1ccccc1 (stereo unspecified)
- T/C [13]: 99 % of control
- T/C [14]: 94 % of control
- T/C (dose: 50.0 mg/kg/injection, schedule: Q01DX009 (ip), vehicle: distilled water + alcohol): 95 % of control
- T/C [15]: 105 % of control
- T/C (dose: 100.0 mg/kg/injection, schedule: Q01DX009 (ip), vehicle: distilled water + alcohol): 98 % of control
- T/C (dose: 200.0 mg/kg/injection, schedule: Q01DX005 (ip), vehicle: water): 99 % of control
- T/C (dose: 200.0 mg/kg/injection, schedule: Q01DX009 (ip), vehicle: distilled water + alcohol): 100 % of control
- T/C (dose: 400.0 mg/kg/injection, schedule: Q01DX009 (ip), vehicle: distilled water + alcohol): 96 % of control

SMILES: COc1cccc2c1C(=O)c1c(O)c3c(c(O)c1C2=O)CC(O)(/C(CO)=N/NC(=O)CCC(=O)N/N=C(\CO)C1(O)Cc2c(O)c4c(c(O)c2C(OC2CC(N)C(O)C(C)O2)C1)C(=O)c1c(OC)cccc1C4=O)CC3OC1CC(N)C(O)C(C)O1 (stereo unspecified)
- T/C (dose: 0.78 mg/kg/injection, schedule: Q01DX009 (ip), vehicle: water): 152 % of control
- T/C (dose: 1.56 mg/kg/injection, schedule: Q01DX009 (ip), vehicle: water): 170 % of control and 196 % of control
- T/C (dose: 2.35 mg/kg/injection, schedule: Q04DX003 (ip), vehicle: water): 110 % of control
- T/C (dose: 3.13 mg/kg/injection, schedule: Q01DX009 (ip), vehicle: water): 218 % of control and 222 % of control
- T/C (dose: 4.7 mg/kg/injection, schedule: Q04DX003 (ip), vehicle: water): 114 % of control
- T/C (dose: 6.25 mg/kg/injection, schedule: Q01DX009 (ip), vehicle: water): 114 % of control and 309 % of control
- T/C (dose: 9.4 mg/kg/injection, schedule: Q04DX003 (ip), vehicle: water): 121 % of control and 124 % of control
- T/C (dose: 12.5 mg/kg/injection, schedule: Q01DX009 (ip), vehicle: water): 102 % of control and 86 % of control
- T/C (dose: 18.8 mg/kg/injection, schedule: Q04DX003 (ip), vehicle: water): 154 % of control
- T/C (dose: 37.5 mg/kg/injection, schedule: Q04DX003 (ip), vehicle: water): 181 % of control
- T/C (dose: 75.0 mg/kg/injection, schedule: Q04DX003 (ip), vehicle: water): 118 % of control

SMILES: Cn1c(=O)c2c(ncn2C)n(C)c1=O.[Cl][Pt]([Cl])[Cl]
- T/C (dose: 6.25 mg/kg/injection, schedule: Q01DX005 (ip), vehicle: water): 116 % of control
- T/C (dose: 12.5 mg/kg/injection, schedule: Q01DX005 (ip), vehicle: water): 116 % of control and 124 % of control
- T/C [13]: 120 % of control
- T/C [14]: 121 % of control
- T/C [15]: 121 % of control

SMILES: Oc1ccccc1CNc1ncc(Cl)cc1Cl
- T/C [16]: 100 % of control
- T/C [17]: 88 % of control
- T/C [18]: 94 % of control

SMILES: CCCCN(CCCC)C1CCC(Nc2ccnc3cc(Cl)ccc23)CC1 (stereo unspecified)
- T/C [19]: 98 % of control
- T/C [20]: 95 % of control

SMILES: CSCCC(NC(=O)OC(C)(C)C)C(=O)NC(Cc1ccccc1)C(=O)NCC(=O)OC(C)(C)C (stereo not drawn) (Boc-Met-Phe-Gly-OtBu; configuration not given here)
- T/C [19]: 93 % of control
- T/C [20]: 97 % of control
- T/C (dose: 200.0 mg/kg/injection, schedule: Q01DX005 (ip), vehicle: Klucel (hydroxypropylcellulose) (HPC)): 107 % of control

SMILES: COC(=O)CCC1=C(C)c2cc3[n-]c(cc4nc(cc5[n-]c(cc1n2)c(CCC(=O)OC)c5C)C=C4C)cc3C.[Ni+2]
- T/C [17]: 90 % of control
- T/C [18]: 90 % of control
- T/C [21]: 86 % of control

SMILES: Cc1nn(C(=S)S)c(C)c1N=Nc1ccccc1Cl
- T/C [9]: 111 % of control
- T/C [10]: 117 % of control
- T/C [11]: 108 % of control

SMILES: O.O.[Cl][Pt+2][Cl].[NH-]C1CC2CCC1C2.[NH-]C1CC2CCC1C2 (stereo unspecified)
- T/C (dose: 33.0 mg/kg/injection, schedule: Q04DX003 (ip), vehicle: saline with Tween-80): 154 % of control
- T/C (dose: 50.0 mg/kg/injection, schedule: Q04DX003 (ip), vehicle: saline with Tween-80): 150 % of control

SMILES: O=C1CC(=O)C(Br)=C1Br
- T/C (dose: 0.37 mg/kg/injection, schedule: Q01DX009 (ip), vehicle: saline): 109 % of control
- T/C (dose: 0.75 mg/kg/injection, schedule: Q01DX009 (ip), vehicle: saline): 100 % of control
- T/C (dose: 0.75 mg/kg/injection, schedule: Q04DX003 (ip), vehicle: saline with Tween-80): 95 % of control
- T/C (dose: 1.5 mg/kg/injection, schedule: Q01DX009 (ip), vehicle: saline): 100 % of control

SMILES: Oc1ccc(/C=N/Nc2nnc(N/N=C/c3ccc(O)cc3O)c3ccccc23)c(O)c1
- T/C (dose: 3.12 mg/kg/injection, schedule: Q01DX009 (ip), vehicle: saline): 106 % of control
- T/C (dose: 3.12 mg/kg/injection, schedule: Q01DX009 (ip), vehicle: suspension in saline): 116 % of control
- T/C (dose: 6.25 mg/kg/injection, schedule: Q01DX009 (ip), vehicle: saline): 112 % of control
- T/C (dose: 12.5 mg/kg/injection, schedule: Q01DX009 (ip), vehicle: saline): 117 % of control

SMILES: OCCSc1c(Cl)c(Cl)c(Cl)c(Cl)c1Cl
- T/C [17]: 106 % of control
- T/C [18]: 113 % of control

SMILES: CCCCN=C1Nc2nc(=NCCCC)nc3c(Br)cc(Br)c(n23)N1
- T/C (dose: 0.18 mg/kg/injection, schedule: Q01DX005 (ip), vehicle: Klucel (hydroxypropylcellulose) (HPC)): 101 % of control
- T/C (dose: 0.37 mg/kg/injection, schedule: Q01DX005 (ip), vehicle: Klucel (hydroxypropylcellulose) (HPC)): 97 % of control
- T/C (dose: 0.75 mg/kg/injection, schedule: Q01DX005 (ip), vehicle: Klucel (hydroxypropylcellulose) (HPC)): 94 % of control
- T/C [1]: 86 % of control
- T/C [2]: 87 % of control and 89 % of control

SMILES: CCOC(=O)c1ccc(NC(=S)Nc2ccccc2C(F)(F)F)cc1
- T/C [7]: 100 % of control
- T/C [8]: 100 % of control
- T/C [12]: 92 % of control

SMILES: O=Cc1c[nH]c2ccc(NC(=O)OCc3ccccc3)cc12
- T/C [16]: 103 % of control
- T/C [17]: 89 % of control
- T/C [21]: 86 % of control

SMILES: CCCCCCCCCCCCCCCCCC(=O)Nc1ncc([N+](=O)[O-])s1
- T/C [7]: 106 % of control
- T/C [8]: 101 % of control
- T/C [12]: 101 % of control

SMILES: CCOC(=O)CC(C)P(c1ccccc1)C(C)CC(=O)OCC (stereo unspecified)
- T/C [9]: 105 % of control
- T/C [3]: 98 % of control
- T/C [10]: 99 % of control
- T/C [4]: 101 % of control
- T/C [11]: 102 % of control
- T/C [5]: 105 % of control
